Results on one compound are retold here after US20180251431A1 (VERTEX PHARMACEUTICALS INCORPORATED, priority 2016, published 2018).

Assay [1] relates to ALD patient B-lymphocytes. Description: Reduction in C26:0 LPC in ALD patient B-lymphocytes in vitro. The note with it: Homo sapiens, Lymphocyte, half maximal reduction in C26:0 LPC. It is filed as cell-based. The procedure: Lysophosphatidylcholine (LPC) VLCFA were generated from straight chain VLCFA (SC-VLCFA) and were used clinically for newborn screening (Vogel et al., Mol. Genet. Metab. (2015) 114(4):599-603). In vitro efficacy studies were performed by measuring LPC VLCFA level (measured as LPC synthesis) in various cell lines, specifically in 1) human HEK cells, 2) patient derived cells, and 3) human microglia, which are disease relevant CNS cells. Compound 87's dose response relationships and IC50 values were measured in HEK cells, primary patient fibroblasts, immortalized patient lymphocytes, and a human microglial cell line. To measure LPC VLCFA synthesis, the foregoing cells were grown in the presence of ^13C labeled acetate (13C Labeled sodium acetate; Sigma Aldrich #282014) and Compound 87 (prepared in DMSO) for about 48 hours. Primary patient fibroblasts and immortalized primary patient lymphocytes were acquired from the Coriell Cell Repository at the Coriell Institute for Medical Research.
Immortalized primary patient lymphocytes cell lines (cell lines GM13496, GM13497, and GM04674) were obtained from the Coriell Cell Repository at the Coriell Institute for Medical Research. Lymphocytes were cultured and plated at a desired cell density, such as 1×10^5 cells/well. […] The plate was sealed with a plate tape and put at −80° C. for further VLCFA extraction and VLCFA quantitation on LC-MS, as described below.
VLCFA Extraction and Quantitation on LCMS:
Treated cells were transferred to a polypropylene v-bottom plate and then centrifuged at 1690×g for 10 minutes. […] The plates were then sealed with pierceable capmats (Micronic MP53017) and stored at −20° C. until further analyzed using UPHLC/Mass Spectrometry Readout, as described above in example 2.1, which measured the integration of ^13C into lysophosphatidylcholine (LPC) indicated fatty acid elongation. Specifically, C16:0, C18:0, C20:0, C22:0, C24:0, and C26:0 LPC levels were measured via mass spectroscopy as described above and IC50 values indicated half maximal reduction in C26:0 LPC levels.

A further assay concerns WT mice. The experiment in a line: Reduction of blood C26:0 LPC in vivo in wild-type mice. More on the design: species or system mouse. To be noted: blood (DBS), plateau between the 2 mg/kg and 16 mg/kg doses, PO QD 28 days. The procedure:
A LC-MS/MS method of analyzing Lysophosphatidylcholine (LPC) in whole blood (dried blood spot card, DBS) and brain tissue samples was developed for measuring the abundance of saturated C16, C18, C20, C22, C24 and C26 LPC in DBS and brain samples. Whole blood was collected with Whatman DMPK-C DBS card at an approximate volume of 20 μL at each time point. Brain tissue was collected at the end point of the study. Samples were prepared and LC-MS/MS analysis was performed as described below.
For DBS bioanalysis, the DBS card was punched at 3 mm in diameter using a semi-automated DBS card puncher. To each punched spot 200 μL of pure methanol was added. The vial was vortexed at low speed for 20 minutes and centrifuged at 4000 rpm for 20 minutes. The clear supernatant was injected onto LC-MS/MS for analysis. […]
The supernatant obtained from each sample was injected into a LC-MS/MS system (Agilent Technologies, Santa Clara, Calif. and Applied Biosystems, Framingham, Mass.) for analysis. […] LPCs were detected by an AB Sciex API-6500 triple quadrupole MS with electrospray ionization in the mode of multiple reaction monitoring. Ions of Q1 were monitored at m/z of 496.6, 524.6, 552.6, 580.6, 608.6 and 636.6 for LPC 16:0, LPC 18:0, LPC 20:0, LPC 22:0, LPC 24:0 and LPC 26:0, respectively. […] C16:0 LPC levels were expressed as a concentration. […]

Structures are written as SMILES.

Broadly, the IC50 is the point on the concentration scale where inhibition reaches its midpoint. `O=C(Nc1ccn(-c2ccnc(F)c2)n1)C1(c2ccccc2F)CC1` [Compound 87, 1-(2-fluorophenyl)-N-[1-(2-fluoro-4-pyridyl)pyrazol-3-yl]cyclopropanecarboxamide]: the values for the IC50 in assay [1] (Patient Lymphocyte (CALD)), in assay [1] (Patient Lymphocyte (Het 1)) and in assay [1] (Patient Lymphocyte (Het 2)) were 15 nM, 5 nM and 9 nM, respectively. Also, the “reduction in C26:0 LPC levels (maximal effect plateau)” value in the assay with WT mice is approximately 65%.
